Data on 17 compounds can be found in patent US20170204092A1, “4,5-DIHYDROISOXAZOLE DERIVATIVES AS NAMPT INHIBITORS” (AURIGENE DISCOVERY TECHNOLOGIES LIMITED, priority 2014, published 2017).

One series deals with MiaPaCa-2 cells. In words: Cytotoxicity assay in MiaPaCa-2 (XTT, 72 h). In kind it is cell-based. The conditions noted are these: for inhibition at 1 µM / inhibition at 10 µM / Cell cytotoxicity assay (% Inhibition at 1 μM) / Cell cytotoxicity assay (% Inhibition at 10 μM): DMSO control = 0% inhibition; for inhibition at 1 µM: read-out: Cell cytotoxicity assay (% Inhibition at 1 μM); for inhibition at 10 µM: read-out: Cell cytotoxicity assay (% Inhibition at 10 μM); for IC50: XTT, read-out: Cell cytotoxicity assay IC50 in range. The procedure:
MiaPaCa-2 Cells (ATCC) were seeded in 96 well plates (Costar clear flat bottom) at a density of 3000 cells/well and allowed to settle overnight. Test compounds were dissolved in dimethyl sulphoxide (DMSO-Sigma Aldrich, D2650) and incubated with MiaPaCa-2 cells for 72 h. Post 72 h, 50 μl XTT (1 mg/mL; Invitrogen, X 6493) and PMS ([…]; Sigma Aldrich, P9625) reagents were added to the cells in 100 μl of cDMEM (Sigma Aldrich-D5648)+10% FBS (Hyclone-5430088-03)+1×Pen Strep (Sigma Aldrich-P0781). After 1 hour incubation with XTT and PMS absorbance was monitored with Spectramax M3 (Molecular Device). Percentage inhibition of proliferation at 10 μM and 1 μM concentrations was calculated by considering DMSO control as 0% inhibition. IC50 values were plotted using Graph pad prism software (Graph pad Inc, La Jola, Calif., USA).
(Formazan colour is commonly taken as a measure of viable cells.)

Series [1] deals with T1, recombinant NAMPT wild type protein (Homo sapiens, UniProt P43490).
T1 construct: made in house; host or cells: E. coli
T1 sequence (P43490 whole entry): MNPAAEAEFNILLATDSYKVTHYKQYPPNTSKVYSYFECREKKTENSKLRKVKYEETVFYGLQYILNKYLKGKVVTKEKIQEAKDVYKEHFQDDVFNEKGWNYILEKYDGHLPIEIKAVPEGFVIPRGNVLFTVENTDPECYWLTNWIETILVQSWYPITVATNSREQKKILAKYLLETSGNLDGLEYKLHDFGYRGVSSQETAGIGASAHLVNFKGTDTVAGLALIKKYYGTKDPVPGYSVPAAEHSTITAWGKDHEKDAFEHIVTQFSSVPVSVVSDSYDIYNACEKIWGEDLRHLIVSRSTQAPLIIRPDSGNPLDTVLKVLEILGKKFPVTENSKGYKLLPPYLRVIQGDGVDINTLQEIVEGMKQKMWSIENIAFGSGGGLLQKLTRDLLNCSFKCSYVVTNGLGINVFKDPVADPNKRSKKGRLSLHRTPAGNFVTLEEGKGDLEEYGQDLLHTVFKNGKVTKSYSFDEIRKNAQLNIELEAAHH
Put plainly: NAMPT fluorescence assay. It is filed as biochemical. Particulars: 50 ng NAMPT, 2 μM Nam, 10 point dose response; read-out: Fluorescence assay IC50 in range. The method, then: The enzymatic assay was standardized using in-house recombinant NAMPT wild type protein from E. coli expression & NAM (Cat #47865-U) as a substrate. The product NMN formed after enzymatic reaction was derivatized to a fluorescent derivative through sequentially reacting with acetophenone/KOH and formic acid. The derivatized fluorescent NMN derivative was detected at 382 nm excitation wavelength and a 445 nm emission wavelength. […] The fluorescence was measured (Excitation at 382 nm & Emission at 445 nm) using Victor^3 V fluorimeter. The data is calculated using the RFU values. The final concentration of DMSO was 2% in the assay. Each individual IC50 was determined using 10 point dose response curve generated by GraphPad Prism software Version 4 (San Diego, Calif., USA) using nonlinear regression curve fit for sigmoidal dose response (variable slope).

SMILES strings stand for the structures. Like-named read-outs stand apart in the source and are kept apart here. Bounds are passed on as bounds.

Usually inhibition stands for the relative decrease from the control value, in per cent. By IC50 is commonly meant the midpoint of a concentration-inhibition curve. Take `N#Cc1ccc(OCC2CC(CNC(=O)c3ccc4nccn4c3)=NO2)c(-c2ccc(F)nc2)n1` (racemic) [Example 10, N-((5-(((6-cyano-6′-fluoro-[2,3′-bipyridin]-3-yl)oxy)methyl)-4,5-dihydroisoxazol-3-yl)methyl)imidazo[1,2-a]pyridine-6-carboxamide]: in the series on MiaPaCa-2 cells (Homo sapiens, MIA PaCa-2, 72 h), the inhibition at 1 µM turned out to be 95%, the inhibition at 10 µM turned out to be 95% and the IC50 was 50 to 250 nM. Further, the IC50 in series [1] lay within 10 to 25 nM.

`Cc1cnc(-c2ccc(F)nc2)c(OCC2CC(CNC(=O)c3ccc4nccn4c3)=NO2)c1` (racemic) [Example 11, N-((5-(((6′-fluoro-5-methyl-[2,3′-bipyridin]-3-yl)oxy)methyl)-4,5-dihydroisoxazol-3-yl)methyl)imidazo[1,2-a]pyridine-6-carboxamide]: in the series on MiaPaCa-2 cells (Homo sapiens, MIA PaCa-2, 72 h), the inhibition at 1 µM is 96%, the inhibition at 10 µM was 95% and the IC50 is below 50 nM. Further, the IC50 in series [1] was in the range of 10 to 25 nM.

In the case of `Cc1ccc(OCC2CC(CNC(=O)c3ccc4nccn4c3)=NO2)c(-c2ccc(F)nc2)n1` (racemic) [Example 12, N-((5-(((6′-fluoro-6-methyl-[2,3′-bipyridin]-3-yl)oxy)methyl)-4,5-dihydroisoxazol-3-yl)methyl)imidazo[1,2-a]pyridine-6-carboxamide], in the series with MiaPaCa-2 cells (Homo sapiens, MIA PaCa-2, 72 h), the inhibition at 1 µM is 96%, the inhibition at 10 µM came out at 95% and the IC50 was below 50 nM. In addition, the IC50 in series [1] is above 25 nM.

As for `O=C(NCC1=NOC(COc2cc(Cl)cnc2-c2cccnc2)C1)c1ccc2nccn2c1` (racemic) [Example 13, N-((5-(((5-chloro-[2,3′-bipyridin]-3-yl)oxy)methyl)-4,5-dihydroisoxazol-3-yl)methyl)imidazo[1,2-a]pyridine-6-carboxamide], in the series with MiaPaCa-2 cells (Homo sapiens, MIA PaCa-2, 72 h), the inhibition at 1 µM was 95%, the inhibition at 10 µM stood at 95% and the IC50 lay within 50 to 250 nM. Besides, the IC50 in series [1] was below 10 nM.

As to `O=C(NCC1=NOC(COc2cc(Cl)cnc2-c2ccc(F)nc2)C1)c1ccc2nccn2c1` (racemic) [Example 14, N-((5-(((5-chloro-6′-fluoro-[2,3′-bipyridin]-3-yl)oxy)methyl)-4,5-dihydro-isoxazol-3-yl)methyl)imidazo[1,2-a]pyridine-6-carboxamide], in the series on MiaPaCa-2 cells (Homo sapiens, MIA PaCa-2, 72 h), the inhibition at 1 µM was found to be 95%, the inhibition at 10 µM was 95% and the IC50 was below 50 nM. In series [1], the half-maximal inhibitory concentration (IC50) was in the range of 10 to 25 nM.

Take `Cc1cc(NC(=O)NCC2=NOC(COc3cccnc3-c3ccc(F)nc3)C2)ccn1` (racemic) [Example 16, 1-((5-(((6′-fluoro-[2,3′-bipyridin]-3-yl)oxy)methyl)-4,5-dihydroisoxazol-3-yl)methyl)-3-(2-methylpyridin-4-yl)urea]: in the series on MiaPaCa-2 cells (Homo sapiens, MIA PaCa-2, 72 h), the inhibition at 1 µM was found to be 89%, the inhibition at 10 µM turned out to be 89% and the IC50 lay in the range of 50 to 250 nM. The IC50 in series [1] is below 10 nM.

Take `O=C(NCC1=NOC(COc2cccnc2-c2ccc(F)nc2)C1)Nc1ccncc1` (racemic) [Example 17, 1-((5-(((6′-fluoro-[2,3′-bipyridin]-3-yl)oxy)methyl)-4,5-dihydroisoxazol-3-yl)methyl)-3-(pyridin-4-yl)urea]: in the series on MiaPaCa-2 cells (Homo sapiens, MIA PaCa-2, 72 h), the inhibition at 1 µM is 90%, the inhibition at 10 µM came to 89% and the IC50 is below 50 nM. The IC50 in series [1] is below 10 nM.

As for `O=C(NCC1=NOC(COc2cccnc2-c2ccc(F)nc2)C1)Nc1ccnnc1` (racemic) [Example 18, 1-((5-(((6′-fluoro-[2,3′-bipyridin]-3-yl)oxy)methyl)-4,5-dihydroisoxazol-3-yl)methyl)-3-(pyridazin-4-yl)urea], in the series with MiaPaCa-2 cells (Homo sapiens, MIA PaCa-2, 72 h), the inhibition at 1 µM was determined as 90%, the inhibition at 10 µM stood at 89% and the IC50 was 50 to 250 nM. In addition, the IC50 in series [1] was above 25 nM.

With `Cc1cc(NC(=O)NCC2=NOC(COc3cccnc3-c3cnn(C)c3)C2)ccn1` (racemic) [Example 19, 1-((5-(((2-(1-methyl-1H-pyrazol-4-yl)pyridin-3-yl)oxy)methyl)-4,5-dihydroisoxazol-3-yl)methyl)-3-(2-methylpyridin-4-yl)urea], in the series with MiaPaCa-2 cells (Homo sapiens, MIA PaCa-2, 72 h), the inhibition at 1 µM is 17%, the inhibition at 10 µM is 82% and the IC50 is above 250 nM. In series [1], the concentration for half-maximal inhibition (IC50) is 10 to 25 nM.

With `O=C(NCC1=NOC(COc2cccnc2-c2ccc(F)nc2)C1)c1ccc2nccn2c1` (single isomer, unassigned) [Example 4a, N-((5-(((6′-fluoro-[2,3′-bipyridin]-3-yl)oxy)methyl)-4,5-dihydroisoxazol-3-yl)methyl)imidazo[1,2-a]pyridine-6-carboxamide], in the series with MiaPaCa-2 cells, the “Cell cytotoxicity assay (% Inhibition at 1 μM)” value was 8% and the IC50 is above 250 nM. Moreover, the inhibition at 10 µM in the series with MiaPaCa-2 cells (Homo sapiens, MIA PaCa-2, 72 h) stood at 83%. The IC50 in series [1] was below 10 nM.

Turning to `O=C(NCC1=NOC(COc2cccnc2-c2ccc(F)nc2)C1)c1ccc2nccn2c1` (single isomer, unassigned) [Example 4b, N-((5-(((6′-fluoro-[2,3′-bipyridin]-3-yl)oxy)methyl)-4,5-dihydroisoxazol-3-yl)methyl)imidazo[1,2-a]pyridine-6-carboxamide], in the series on MiaPaCa-2 cells, the “Cell cytotoxicity assay (% Inhibition at 1 μM)” value came out at 95%, the “Cell cytotoxicity assay (% Inhibition at 10 μM)” value came out at 94% and the IC50 is below 50 nM. In addition, the IC50 in series [1] is below 10 nM.

Take `O=C(NCC1=NOC(COc2cccnc2-c2cccnc2)C1)c1ccc2nccn2c1` (single isomer, unassigned) [Example 7a, N-((5-(([2,3′-bipyridin]-3-yloxy)methyl)-4,5-dihydroisoxazol-3-yl)methyl)-imidazo[1,2-a]pyridine-6-carboxamide]: the IC50 in the series on MiaPaCa-2 cells is below 50 nM; in series [1] it was below 10 nM.

As to `O=C(NCC1=NOC(COc2cccnc2-c2ccc(Cl)nc2)C1)c1ccc2nccn2c1` (single isomer, unassigned) [Example 8b, N-((5-(((6′-chloro-[2,3′-bipyridin]-3-yl)oxy)methyl)-4,5-dihydroisoxazol-3-yl)methyl)imidazo[1,2-a]pyridine-6-carboxamide], in the series with MiaPaCa-2 cells, the “Cell cytotoxicity assay (% Inhibition at 1 μM)” value was determined as 92%, the “Cell cytotoxicity assay (% Inhibition at 10 μM)” value was determined as 94% and the IC50 lay in the range of 50 to 250 nM. For the same compound, in series [1], the half-maximal inhibitory concentration (IC50) is above 25 nM.

`O=C(NCC1=NOC(COc2cc(F)cnc2-c2ccc(F)nc2)C1)c1ccc2nccn2c1` (single isomer, unassigned) [Example 9a, N-((5-(((5,6′-difluoro-[2,3′-bipyridin]-3-yl)oxy)methyl)-4,5-dihydroisoxazol-3-yl)methyl)imidazo[1,2-a]pyridine-6-carboxamide]: in the series on MiaPaCa-2 cells, the “Cell cytotoxicity assay (% Inhibition at 1 μM)” value was 12% and the IC50 is above 250 nM. Also, the inhibition at 10 µM in the series with MiaPaCa-2 cells (Homo sapiens, MIA PaCa-2, 72 h) came to 90%. The IC50 in series [1] was below 10 nM.

`O=C(NCC1=NOC(COc2cc(F)cnc2-c2ccc(F)nc2)C1)c1ccc2nccn2c1` (single isomer, unassigned) [Example 9b, N-((5-(((5,6′-difluoro-[2,3′-bipyridin]-3-yl)oxy)methyl)-4,5-dihydroisoxazol-3-yl)methyl)imidazo[1,2-a]pyridine-6-carboxamide]: in the series on MiaPaCa-2 cells, the “Cell cytotoxicity assay (% Inhibition at 1 μM)” value is reported as 95%, the “Cell cytotoxicity assay (% Inhibition at 10 μM)” value was determined as 95% and the IC50 was below 50 nM. The IC50 in series [1] lay within 10 to 25 nM.

`Cc1cnc(-c2ccc(F)nc2)c(OCC2CC(CNC(=O)c3ccc4nccn4c3)=NO2)c1` (single isomer, unassigned) [Example 11a, N-((5-(((6′-fluoro-5-methyl-[2,3′-bipyridin]-3-yl)oxy)methyl)-4,5-dihydroisoxazol-3-yl)methyl)imidazo[1,2-a]pyridine-6-carboxamide]: in the series with MiaPaCa-2 cells (Homo sapiens, MIA PaCa-2, 72 h), the inhibition at 1 µM came out at 88% and the inhibition at 10 µM was 100%. In addition, the IC50 in the series with MiaPaCa-2 cells was above 250 nM. The IC50 in series [1] was in the range of 10 to 25 nM.

With `Cc1cnc(-c2ccc(F)nc2)c(OCC2CC(CNC(=O)c3ccc4nccn4c3)=NO2)c1` (single isomer, unassigned) [Example 11b, N-((5-(((6′-fluoro-5-methyl-[2,3′-bipyridin]-3-yl)oxy)methyl)-4,5-dihydroisoxazol-3-yl)methyl)imidazo[1,2-a]pyridine-6-carboxamide], in the series with MiaPaCa-2 cells, the “Cell cytotoxicity assay (% Inhibition at 1 μM)” value was 100%, the “Cell cytotoxicity assay (% Inhibition at 10 μM)” value was 98% and the IC50 was below 50 nM. In addition, the IC50 in series [1] is 10 to 25 nM.
